In patent publication US20230414552A1, “NOVEL METHODS” (Colgate-Palmolive Company, priority 2020, published 2023):

What was measured:
Type in all cases: cell-based
BMSCs = assay: BrdU analysis of BMSC proliferation (control cells); settings: BMSCs as control cells
From the text: (§1) To examine whether ERK activator can elevate PDLSC function through Wnt signaling, five different ERK activators are used to treat PDLSCs, and BMSCs (“Bone marrow-derived mesenchymal stem/stromal cells”) serve as the control in this experiment.

PDLSCs [1] = assay: Western blot of osteogenic genes Runx2 and ALP in PDLSCs; settings: PDLSC, 1 uM PEITC or 5 uM resveratrol, osteogenic induction
Protocol: The expression of the osteogenic genes runt-related transcription factor 2 (Runx2) and alkaline phosphatase (ALP) are also elevated in PEITC or resveratrol treated groups, assessable by Western blot. […] To examine the effect of natural compounds yellow and white curcumin extracts in GMSC and PDLSC osteogenesis, cells are treated with 5 μM yellow and white curcumin extracts under osteogenic induction. Alizarin red staining show yellow curcumin extract, but not white curcumin extract treatment elevated osteogenic differentiation, as indicated by increased mineralized nodule formation. The stained positive areas were quantified using NIH ImageJ software and shown as a percentage of the total area.

PDLSCs [2] = assay: BrdU analysis of PDLSC proliferation; settings: ERK activator treatment of PDLSCs
From the text: as §1

PDLSCs [3] = assay: Toluidine blue staining of surviving PDLSCs after co-culture with activated T cells
From the text: After co-culture, toluidine blue staining allows for observation of the surviving PDLSCs that remain on the culture plates as positive staining. […] Natural ERK activators, PEITC and resveratrol, protect PDLSCs survival.

GMSC = assay: BrdU incorporation assay of GMSC proliferation; settings: for Brdu + BMSC/Total Cells (%): control 28.1% ± 0.75
CD3+ T cells = assay: PDLSC/T cell co-culture, flow cytometric analysis of apoptotic T cells; settings: flow cytometry
Protocol: PEITC and resveratrol are tested to determine whether they contribute to PDLSC immunomodulation. A PDLSC/T cell co-culture experiment examines the immunomodulatory properties of PDLSCs with different compounds treatment.

PDLSCs [4] = assay: Alizarin red staining of PDLSC osteogenesis under osteogenic induction; settings: for Mineralized Area (% Total Area): control 47% ± 3.61
Protocol: To examine the effect of natural compounds PEITC and resveratrol in PDLSC osteogenesis, cells are treated with 1 uM PEITC or 5 uM resveratrol under osteogenic induction. […] The stained positive areas are then quantifiable using NIH ImageJ software and shown as a percentage of the total area. To examine the effect of natural compounds yellow and white curcumin extracts in GMSC and PDLSC osteogenesis, cells are treated with 5 μM yellow and white curcumin extracts under osteogenic induction. Alizarin red staining show yellow curcumin extract, but not white curcumin extract treatment elevated osteogenic differentiation, as indicated by increased mineralized nodule formation. The stained positive areas were quantified using NIH ImageJ software and shown as a percentage of the total area.

Wnt/β-catenin = assay: Western blot of ERK downstream signaling in PDLSCs; settings: PDLSCs after treatment
From the text: Subsequently, ERK downstream signaling pathways involve screening using a Western blot technique. This includes screening for Shp2 signaling, Notch signaling, and Wnt signaling.

Row | Compound | effect on proliferation rate in BMSCs (BrdU analysis) (BMSCs) | expression of Runx2 (Western blot) (PDLSCs [1]) | expression of alkaline phosphatase (ALP) (Western blot) (PDLSCs [1]) | PDLSC proliferation rate (BrdU analysis) (PDLSCs [2]) | PDLSC survival from activated T cell attack (toluidine blue staining) (PDLSCs [3]) | GMSC cell proliferation (BrdU incorporation assay) (GMSC; 1 uM) | Brdu + BMSC/Total Cells (%) (GMSC; 1 μM) | PDLSC immunomodulation (AnnexinV+7AAD+ double positive apoptotic CD3+ T cells) (CD3+ T cells) | osteogenic differentiation, mineralized nodule formation (Alizarin red staining) (PDLSCs [4]; 1 uM PEITC) | Mineralized Area (% Total Area) (PDLSCs [4]; 1 μM) | Wnt/β-catenin activation (Western blot) (Wnt/β-catenin) | GMSC cell proliferation (BrdU incorporation assay) (GMSC; 5 uM) | Brdu + BMSC/Total Cells (%) (GMSC; 5 μM) | osteogenic differentiation, mineralized nodule formation (Alizarin red staining) (PDLSCs [4]; 5 uM resveratrol) | Mineralized Area (% Total Area) (PDLSCs [4]; 5 μM)
1 | S=C=NCCc1ccccc1 [PEITC, Phenethyl Isothiocyanate] | not observable | elevated | elevated | significantly increases | protect | significantly elevated | 48.6% ± 4.79 | significantly promotes | elevate | 65% ± 3.46 | highly activated |  |  |  | 
2 | CC(C)(C)c1cc(O)ccc1O [t-Butylhydroquinone, reference compound] | not observable |  |  | significantly increases |  |  |  |  |  |  | highly activated |  |  |  | 
3 | Oc1ccc(/C=C/c2cc(O)cc(O)c2)cc1 [resveratrol, 3,5,4′-trihydroxy-trans-stilbene] | not observable | elevated | elevated | significantly increases | protect |  |  | significantly promotes |  |  | highly activated | significantly elevated | 47.6% ± 3.17 | elevate | 59% ± 2.00
